The source made the active and inactive calls. The rule behind the calls is not given here.
Assays:
Type in all cases: functional, organism-based
Details in all cases: dose 500.0 µg/kg
Mus musculus [1] = test: Hypoglycemic activity in sixteen hrs fasted wild type C57BL/6 mouse assessed as increase in insulin concentration at 500 microg/kg, ip followed by oral glucose at 2 g/Kg and measured upto 150 mins by OGTT
Mus musculus [2] = test: Hypoglycemic activity in sixteen hrs fasted wild type C57BL/6 mouse assessed as reduction in glucose concentration at 500 microg/kg, ip followed by oral glucose at 2 g/Kg and measured upto 150 mins by OGTT
Mus musculus [3] = test: Hypoglycemic activity in sixteen hrs fasted wild type C57BL/6 mouse assessed as reduction in blood glucose level at 500 microg/kg, ip followed by oral glucose at 2 g/Kg and measured for 120 mins by OGTT
Mus musculus [4] = test: Hypoglycemic activity in sixteen hrs fasted wild type C57BL/6 mouse assessed as reduction in blood glucose level at 500 microg/kg, ip followed by oral glucose at 2 g/Kg and measured for 150 mins by OGTT

SMILES | Activity (Mus musculus [1]) | Activity (Mus musculus [2]) | Activity (Mus musculus [3]) | Activity (Mus musculus [4])
CC[C@H](C)[C@H](NC(=O)[C@H](Cc1ccccc1)NC(=O)[C@H](CCC(=O)O)NC(=O)[C@H](CCCCN)NC(=O)[C@H](C)NC(=O)[C@H](C)NC(=O)[C@H](CCC(N)=O)NC(=O)CNC(=O)[C@H](CCC(=O)O)NC(=O)[C@H](CC(C)C)NC(=O)[C@H](Cc1ccc(O)cc1)NC(=O)[C@H](CO)NC(=O)[C@H](CO)NC(=O)[C@@H](NC(=O)[C@H](CC(=O)O)NC(=O)[C@H](CO)NC(=O)[C@@H](NC(=O)[C@H](Cc1ccccc1)NC(=O)[C@@H](NC(=O)CNC(=O)[C@H](CCC(=O)O)NC(=O)[C@H](C)NC(=O)[C@@H](N)Cc1c[nH]cn1)[C@@H](C)O)[C@@H](C)O)C(C)C)C(=O)N[C@@H](C)C(=O)N[C@@H](Cc1c[nH]c2ccccc12)C(=O)N[C@@H](CC(C)C)C(=O)N[C@H](C(=O)N[C@@H](CCCCN)C(=O)NCC(=O)N[C@@H](CCCN=C(N)N)C(=O)NCC(=O)O)C(C)C | Active | Active |  | 
CCCCCCCCCCCCCCCC(=O)NCCOCCOCCOCCOCCOCCOCC(=O)N[C@@H](CSc1[nH]c2ccccc2c1C[C@H](NC(=O)[C@H](C)NC(=O)[C@@H](NC(=O)[C@H](Cc1ccccc1)NC(=O)[C@H](CCC(=O)O)NC(=O)[C@H](CCCCN)NC(=O)[C@H](C)NC(=O)[C@H](C)NC(=O)[C@H](CCC(N)=O)NC(=O)CNC(=O)[C@H](CCC(=O)O)NC(=O)[C@H](CC(C)C)NC(=O)[C@H](Cc1ccc(O)cc1)NC(=O)[C@H](CO)NC(=O)[C@H](CO)NC(=O)[C@@H](NC(=O)[C@H](CC(=O)O)NC(=O)[C@H](CO)NC(=O)[C@@H](NC(=O)[C@H](Cc1ccccc1)NC(=O)[C@@H](NC(=O)CNC(=O)[C@H](CCC(=O)O)NC(=O)[C@H](C)NC(=O)[C@@H](N)Cc1cnc[nH]1)[C@@H](C)O)[C@@H](C)O)C(C)C)[C@@H](C)CC)C(=O)N[C@@H](CC(C)C)C(=O)N[C@H](C(=O)N[C@@H](CCCCN)C(=O)NCC(=O)N[C@@H](CCCNC(=N)N)C(=O)NCC(=O)O)C(C)C)C(N)=O |  |  | Active | Active
CCCCCCCCCCCCCCCC(=O)NCCOCCOCC(=O)N[C@@H](CSc1[nH]c2ccccc2c1C[C@H](NC(=O)[C@H](C)NC(=O)[C@@H](NC(=O)[C@H](Cc1ccccc1)NC(=O)[C@H](CCC(=O)O)NC(=O)[C@H](CCCCN)NC(=O)[C@H](C)NC(=O)[C@H](C)NC(=O)[C@H](CCC(N)=O)NC(=O)CNC(=O)[C@H](CCC(=O)O)NC(=O)[C@H](CC(C)C)NC(=O)[C@H](Cc1ccc(O)cc1)NC(=O)[C@H](CO)NC(=O)[C@H](CO)NC(=O)[C@@H](NC(=O)[C@H](CC(=O)O)NC(=O)[C@H](CO)NC(=O)[C@@H](NC(=O)[C@H](Cc1ccccc1)NC(=O)[C@@H](NC(=O)CNC(=O)[C@H](CCC(=O)O)NC(=O)[C@H](C)NC(=O)[C@@H](N)Cc1cnc[nH]1)[C@@H](C)O)[C@@H](C)O)C(C)C)[C@@H](C)CC)C(=O)N[C@@H](CC(C)C)C(=O)N[C@H](C(=O)N[C@@H](CCCCN)C(=O)NCC(=O)N[C@@H](CCCNC(=N)N)C(=O)NCC(=O)O)C(C)C)C(N)=O |  |  | Active | Active

Source: ChEMBL document CHEMBL5120936, “S-Protected Cysteine Sulfoxide-Enabled Tryptophan-Selective Modification with Application to Peptide Lipidation” (ACS Med Chem Lett, 2022)
